Measurements from patent US12016864B2, “LOX enzyme inhibiting methods and compositions” (ANOVIA BIOSCIENCES, INC., priority 2021, dated 2024).

biological target: T1, Recombinant human LOXL2 (lysyl oxidase like 2) (Homo sapiens, UniProt Q9Y4K0); assay: LOXL2 inhibition assay, fluorometric (cadaverine / HRP / Amplex Red); type: biochemical; details: recombinant human LOXL2 130 nM; 30 min preincubation at 37° C.; 2.5 mM cadaverine; read-out: Activity Range LOXL2
T1 construct: purchased R&D systems
T1 sequence (Q9Y4K0 26-774): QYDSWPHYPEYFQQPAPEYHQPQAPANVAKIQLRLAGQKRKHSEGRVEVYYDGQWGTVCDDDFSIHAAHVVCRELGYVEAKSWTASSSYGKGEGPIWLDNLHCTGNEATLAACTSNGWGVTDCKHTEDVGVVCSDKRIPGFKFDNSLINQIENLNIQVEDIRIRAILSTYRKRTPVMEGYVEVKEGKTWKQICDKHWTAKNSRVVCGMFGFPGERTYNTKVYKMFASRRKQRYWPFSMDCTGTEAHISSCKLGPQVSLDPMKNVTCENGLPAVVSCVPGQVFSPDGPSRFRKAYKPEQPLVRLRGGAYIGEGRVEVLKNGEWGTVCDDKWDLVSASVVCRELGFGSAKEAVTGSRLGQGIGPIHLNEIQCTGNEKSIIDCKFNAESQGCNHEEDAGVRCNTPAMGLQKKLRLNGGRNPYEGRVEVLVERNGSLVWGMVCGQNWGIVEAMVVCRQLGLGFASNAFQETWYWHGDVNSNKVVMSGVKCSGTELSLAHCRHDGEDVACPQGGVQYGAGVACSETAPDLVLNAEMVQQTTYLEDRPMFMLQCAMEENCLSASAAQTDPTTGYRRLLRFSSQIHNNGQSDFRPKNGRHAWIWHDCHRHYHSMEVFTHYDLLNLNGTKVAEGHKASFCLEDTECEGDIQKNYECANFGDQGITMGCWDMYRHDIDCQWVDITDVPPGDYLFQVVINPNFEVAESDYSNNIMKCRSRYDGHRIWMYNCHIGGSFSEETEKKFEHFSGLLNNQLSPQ
Procedure: The ability of compounds to inhibit one or more of the lysyl oxidases LOXL2 and/or LOXL3 was determined using a fluorometric assay. This assay measures the activity of lysyl oxidases by coupling the reaction with horseradish peroxidase-catalyzed […]. The activity assay protocol uses cadaverine as substrate that releases hydrogen peroxide upon transformation by the specific LOX family enzyme present in the sample. Hydrogen peroxide is in turn detected using a red fluorescence substrate for HRP-coupled reactions (Amplex Red Enzyme Assays, Thermo Scientific Fisher). This leads to increase in fluorescence that can be easily detected at Ex/Em=540/590 nm in a fluorescence microplate reader.
Recombinant human LOXL2 (lysyl oxidase like 2) and recombinant human LOXL3 (lysyl oxidase like 3) were purchased from R&D systems and assays were performed in 1.2 M urea, 50 mM sodium borate buffer pH 8.0, and 10 mM CaCl.
5 μl of freshly prepared reaction buffer were delivered to reaction wells. Compounds were resuspended in 100% DMSO at 10 mM and delivered into buffer using acoustic technology (Echo550; nanoliter range). A 3× solution of LOXL2 or LOXL3 in reaction buffer was prepared (“enzyme solution”) and 5 μL of enzyme solution was added into the reaction wells. Buffer only was added to column 1 for no protein control. Reactions were incubated for 30 minutes at 37° C. A 3× mixture of cadaverine, Amplex Red, and HRP (“Substrate/Detection Mix) was prepared and subsequently 5 μL of the mixture added to each reaction well. Progress of reactions was monitored for 60 minutes at 37° C. using Clariostar plate reader (ex 530-12, ems 600-40). For all activity assays, pan-LOX inhibitor CCT365623 (Tang et al, 2017) and LOXL2/LOXL3 inhibitor PAT-1251 (PharmaKea) were included as standards.
For the data analysis, the slope of the linear portion of the progress curve was calculated using Clariostar software. Typical analysis interval was between 8-30 min, but varied between experiments. The background-subtracted signals (No protein wells are considered as background) were converted to % activity relative to DMSO controls. Data was analyzed using GraphPad Prism 4 with “sigmoidal dose-response (variable slope)”; 4 parameters with Hill Slope. Constraints: Bottom=Constant equal to 0. Top=Must be less than 120.

IC50 [nM]	SMILES
≤ 500	CS(=O)(=O)N1C[C@@H](c2ccccc2)C[C@H]1CS(=O)(=O)c1ccc(CN)s1 (racemic) [Example 223, cis-(5-(((1-(Methylsulfonyl)-4-phenylpyrrolidin-2-yl)methyl)sulfonyl)thiophen-2-yl)methanamine 2,2,2-trifluoroacetate]
≤ 500	CS(=O)(=O)N1C[C@@H](c2ccccc2)C[C@@H]1CS(=O)(=O)c1ccc(CN)s1 (racemic) [Example 223T, trans-(5-(((1-(Methylsulfonyl)-4-phenylpyrrolidin-2-yl)methyl)sulfonyl)thiophen-2-yl)methanamine 2,2,2-trifluoroacetate]
≤ 500	NCc1ccnc(OC[C@H]2C[C@H](C3CCCCC3)CN(S(=O)(=O)N3CCS(=O)(=O)CC3)C2)c1 (racemic) [Example 235T, trans-4-((3-(((4-(Aminomethyl)pyridin-2-yl)oxy)methyl)-5-cyclohexylpiperidin-1-yl)sulfonyl)thiomorpholine 1,1-dioxide 2,2,2-trifluoroacetate]
≤ 500	NCc1ccnc(OC[C@@H]2CC(C3CCCCC3)CN2S(=O)(=O)N2CCOCC2)c1 (mixture of isomers) [Example 239RAC, (2-(((2S)-4-Cyclohexyl-1-(morpholinosulfonyl)pyrrolidin-2-yl)methoxy)pyridin-4-yl)methanamine 2,2,2-trifluoroacetate]
500 to 1000	NCc1ccnc(OC[C@H]2C[C@H](c3ccccc3)CN(S(=O)(=O)N3CCOCC3)C2)c1 (relative stereo) [Example 220T, trans-(2-((1-(Morpholinosulfonyl)-5-phenylpiperidin-3-yl)methoxy)pyridin-4-yl)methanamine 2,2,2-trifluoroacetate]
≤ 500	NCc1cccc(OC[C@H]2C[C@H](c3ccccc3)CN(S(=O)(=O)N3CCOCC3)C2)c1 (relative stereo) [Example 221T, trans-(3-((1-(Morpholinosulfonyl)-5-phenylpiperidin-3-yl)methoxy)phenyl)methanamine 2,2,2-trifluoroacetate]
≤ 500	NCc1ccc(S(=O)(=O)C[C@H]2C[C@H](c3ccccc3)CN(S(=O)(=O)N3CCOCC3)C2)s1 (relative stereo) [Example 222T, trans-(5-(((1-(Morpholinosulfonyl)-5-phenylpiperidin-3-yl)methyl)sulfonyl)thiophen-2-yl)methanamine 2,2,2-trifluoroacetate]
≤ 500	NCc1ccnc(S(=O)(=O)C[C@@H]2C[C@H](C3CCCCC3)CN(S(=O)(=O)N3CCOCC3)C2)c1 (relative stereo) [Example 230, cis-(2-(((5-Cyclohexyl-1-(morpholinosulfony1)piperidin-3-yl)methyl)sulfonyl)pyridin-4-yl)methanamine 2,2,2-trifluoroacetate]
≤ 500	NCc1ccnc(S(=O)(=O)C[C@H]2C[C@H](C3CCCCC3)CN(S(=O)(=O)N3CCOCC3)C2)c1 (relative stereo) [Example 230T, trans-(2-(((5-Cyclohexyl-1-(morpholinosulfonyl)piperidin-3-yl)methyl)sulfonyl)pyridin-4-yl)methanamine 2,2,2-trifluoroacetate]
≤ 500	NCc1ccnc(OC[C@@H]2C[C@H](C3CCCCC3)CN(S(=O)(=O)N3CCOCC3)C2)c1 (relative stereo) [Example 231, cis-(2-((5-Cyclohexyl-1-(morpholinosulfonyl)piperidin-3-yl)methoxy)pyridin-4-yl)methanamine 2,2,2-trifluoroacetate]
≤ 500	NCc1ccnc(S(=O)(=O)C[C@@H]2C[C@H](C3CCCCC3)CN(S(=O)(=O)N3CCS(=O)(=O)CC3)C2)c1 (relative stereo) [Example 234, cis-4-((3-(((4-(Aminomethyl)pyridin-2-yl)sulfonyl)methyl)-5-cyclohexylpiperidin-1-yl)sulfonyl)thiomorpholine 1,1-dioxide 2,2,2-trifluoroacetate]
≤ 500	NCc1ccnc(S(=O)(=O)C[C@H]2C[C@H](C3CCCCC3)CN(S(=O)(=O)N3CCS(=O)(=O)CC3)C2)c1 (relative stereo) [Example 234T, trans-4-((3-(((4-(Aminomethyl)pyridin-2-yl)sulfonyl)methyl)-5-cyclohexylpiperidin-1-yl)sulfonyl)thiomorpholine 1,1-dioxide 2,2,2-trifluoroacetate]
≤ 500	NCc1ccnc(OC[C@H]2C[C@H](C3CCCCC3)CN(S(=O)(=O)N3CCOCC3)C2)c1 [Example 231T, trans-(2-(((3S,5R)-5-cyclohexyl-1-(morpholinosulfonyl)piperidin-3-yl)methoxy)pyridin-4-yl)methanamine]
